# Results reported in patent US10208033B2, “β-carboline, dihydro-β-carboline and tetrahydro-β-carboline alkaloid derivatives and preparation methods same and use in aspects of preventing and treating plant viruses, fungicides and insecticides” (NANKAI UNIVERSITY, priority 2013, dated 2019).
# Where a name gives a salt, the structure may show the parent alone.
# Columns and labels:
# Alternaria solani = assay: Fungicidal (bactericidal) activity in vitro, PDA colony diameter; format: cell-based; details: 50 mg/kg
# [1] = system: tobacco mosaic virus (TMV); assay: Anti-TMV in vivo therapeutic effect; set-up: species or system tobacco mosaic virus (host Nicotiana tabacum L.cv.Xanthi NN)
# Rhizoctonia cereali = assay: Fungicidal (bactericidal) activity in vitro, PDA colony diameter; format: cell-based; details: 50 mg/kg
# Macrophoma kawatsukai = assay: as above; format: cell-based; details: 50 mg/kg
# [2] = system: Colletotrichum orbiculare; assay: as above; format: cell-based; details: 50 mg/kg
# Bipolaria maydis = assay: organism not typed; format: cell-based; details: for Bactericidal activity (%) Bipolaria maydis: 50 mg/kg
# potato late blight = assay: microbe, parasite or virus in culture; format: cell-based
# Phytophthora capsici = assay: Fungicidal (bactericidal) activity in vitro, PDA colony diameter; format: cell-based; details: 50 mg/kg
# Rhizoctonia solani = assay: as above; format: cell-based; details: 50 mg/kg
# Fusarium graminearumt = assay: microbe, parasite or virus in culture; format: cell-based; details: for Bactericidal activity (%) Fusarium graminearumt: 50 mg/kg
# cotton bollworms = assay: whole plant or invertebrate; details: for Cotton bollworm Mortality (%): concentration 600 mg/kg
# Method: Experimental method of cotton bollworms: feed and drug mixing method: measure 3 mL of prepared solution and add it to about 27 g of newly prepared feed, thereby obtaining needed concentration through dilution by 10 times.
# Cercospora arachidicola = assay: Fungicidal (bactericidal) activity in vitro, PDA colony diameter; format: cell-based; details: 50 mg/kg
# Sclerotinia scleotiorum = assay: as above; format: cell-based; details: 50 mg/kg
# corn borers [3] = assay: whole plant or invertebrate; details: read-out: Corn borer Mortality (%)
# [4] = system: tobacco mosaic virus (TMV); assay: Anti-TMV in vivo protective effect; set-up: species or system tobacco mosaic virus (host Nicotiana tabacum L.cv.Xanthi NN)
# cucumber fusarium wilt = assay: Fungicidal (bactericidal) activity in vitro, PDA colony diameter; format: cell-based; details: 50 mg/kg
# [5] = system: tobacco mosaic virus (TMV); assay: Anti-TMV in vivo inactivation; set-up: species or system tobacco mosaic virus (host Nicotiana tabacum L.cv.Xanthi NN)
# [6] = system: tobacco mosaic virus (TMV); assay: Anti-TMV in vitro effect (half-leaf soaking); format: cell-based, tobacco mosaic virus (host Nicotiana tabacum L.cv.Xanthi NN)
# Fusarium fujikuroi = assay: Fungicidal (bactericidal) activity in vitro, PDA colony diameter; format: cell-based; details: 50 mg/kg
# mosquito larvae = assay: whole plant or invertebrate; details: for activity against culex pipiens larvae (in words): at 5 mg/kg
# Summary of the method: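 Compound dissolved in acetone (or other solvent) to a 1000 ppm stock and diluted in water to 5 ppm. Ten Culex pipiens pallens larvae at the start of the fourth instar, laboratory-reared, added per beaker; solvent-only aqueous control.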
# Botrytis cinerea = assay: Fungicidal (bactericidal) activity in vitro, PDA colony diameter; format: cell-based; details: 50 mg/kg
# [7] = system: armyworms, cotton bollworms and corn borers; assay: Insecticidal activity, overall statements on Table 3; format: in vivo; details: Table 3, 600 mg/kg
# [8] = system: tobacco mosaic virus (TMV); assay: Anti-TMV activity, overall statements on Table 1; format: in vivo, tobacco mosaic virus (host Nicotiana tabacum L.cv.Xanthi NN); details: 100 μg/mL versus ningnanmycin at 100 μg/mL
# armyworms = format: in vivo; details: concentration 600 mg/kg
# corn borers [9] = details: concentration 600 mg/kg
# 14 kinds of fungi = assay: Bactericidal activity, overall statements on Table 2; format: cell-based; details: Table 2, 50 mg/kg
# Description: In vitro test method (Alternaria solani is taken for example. Alternatively, other fungi may be used): Inoculate Alternaria solani to PDA culture medium, culture it for 7 days, prepare […] bacteria plates from colony edge by a puncher, inoculate […] and drug-free PDA culture media, culture them for 4 days, measure colony diameter, compare with the control group and calculate the inhibition percentage of the drug.
# [10] = Culex pipiens, 24 h, read-out: Mosquito larvae Mortality (%)
compound,measurement,setting,value
"CCOC(=O)[C@@H]1Cc2c([nH]c3ccccc23)[C@H](C)N1 [Ib-13, (1S, 3S)-1-methyl-2,3,4,9-tetrahydropyridino [3,4-b] indol-3-ethyl formate]",inhibition of growth at 50 mg/kg,"Alternaria solani; Alternaria solani, 96 h",55.6%
same,inhibition at 100 µg/mL,"[1]; Tobacco mosaic virus, treatment dose 100 μg/mL, read-out: Relative inhibition rate (%) In vivo therapy",17.5%
same,inhibition at 500 µg/mL,"[1]; Tobacco mosaic virus, treatment dose 500 μg/mL, read-out: Relative inhibition rate (%) In vivo therapy",43.9%
same,inhibition of growth at 50 mg/kg,"Rhizoctonia cereali; Rhizoctonia, 96 h",59.4%
same,inhibition at 50 mg/kg,Macrophoma kawatsukai,29.4%
same,inhibition of growth at 50 mg/kg,"[2]; Colletotrichum orbiculare, 96 h",38.1%
same,inhibition at 50 mg/kg,Bipolaria maydis; read-out: Bactericidal activity (%) Bipolaria maydis,26.3%
same,inhibition of growth at 50 mg/kg,"potato late blight; Phytophthora infestans, 96 h, read-out: Bactericidal activity (%) potato late blight",30%
same,inhibition of growth at 50 mg/kg,"Phytophthora capsici; Phytophthora capsici, 96 h",60.6%
same,inhibition of growth at 50 mg/kg,"Rhizoctonia solani; Rhizoctonia solani, 96 h",33.9%
same,inhibition of growth at 50 mg/kg,"Fusarium graminearumt; Fusarium, 96 h, read-out: Bactericidal activity (%) Fusarium graminearumt",21.4%
same,mortality at 600 mg/kg,"cotton bollworms; Helicoverpa armigera, in Gossypium hirsutum, read-out: Cotton bollworm Mortality (%)",30%
same,inhibition of growth at 50 mg/kg,"Cercospora arachidicola; Mycosphaerella arachidis, 96 h",50%
same,inhibition of growth at 50 mg/kg,"Sclerotinia scleotiorum; Sclerotinia, 96 h",68%
same,mortality at 600 mg/kg,corn borers [3],55%
same,inhibition at 100 µg/mL,"[4]; Tobacco mosaic virus, treatment dose 100 μg/mL, read-out: Relative inhibition rate (%) In vivo protection",18.6%
same,inhibition at 500 µg/mL,"[4]; Tobacco mosaic virus, treatment dose 500 μg/mL, read-out: Relative inhibition rate (%) In vivo protection",47.9%
same,inhibition of growth at 50 mg/kg,"cucumber fusarium wilt; Fusarium, 96 h",28.6%
same,inhibition at 100 µg/mL,"[5]; Tobacco mosaic virus, treatment dose 100 μg/mL, read-out: Relative inhibition rate (%) In vivo inactivation",25.7%
same,inhibition at 500 µg/mL,"[5]; Tobacco mosaic virus, treatment dose 500 μg/mL, read-out: Relative inhibition rate (%) In vivo inactivation",50.4%
same,inhibition at 100 µg/mL,"[6]; Tobacco mosaic virus, treatment dose 100 μg/mL, read-out: Relative inhibition rate (%) In vitro activity",21.8%
same,inhibition at 500 µg/mL,"[6]; Tobacco mosaic virus, treatment dose 500 μg/mL, read-out: Relative inhibition rate (%) In vitro activity",46.5%
same,inhibition of growth at 50 mg/kg,"Fusarium fujikuroi; Fusarium fujikuroi, 96 h",42.9%
same,mortality at 5 mg/kg,mosquito larvae; [10],60%
same,mortality at 10 mg/kg,mosquito larvae; [10],100%
same,activity against culex pipiens larvae (in words),mosquito larvae,still show high activity
same,inhibition of growth at 50 mg/kg,"Botrytis cinerea; Botrytis cinerea, 96 h",68.2%
same,"activity against armyworms, cotton bollworms and corn borers (in words)",[7],broad-spectrum activity
same,anti-TMV activity compared with ningnanmycin,[8],equivalent to the activity of commercial variety ningnanmycin
same,Armyworm Mortality (%),armyworms,60%
"C[C@@H]1N[C@H](C(=O)NN=Cc2ccc(C(C)(C)C)cc2)Cc2c1[nH]c1ccccc21 [Ic-2, (1S, 3S)—N′-(4-tert-butylbenzylidene)-1-methyl-2,3,4,9-tetrahydropyridino [3,4-b] indol-3-formylhydrazine]",Bactericidal activity (%) Alternaria solani,Alternaria solani,70.0%
same,Corn borer Mortality (%),corn borers [9],5%
same,Relative inhibition rate (%) In vivo therapy,[1]; treatment dose 100 μg/mL,18.2%
same,Relative inhibition rate (%) In vivo therapy,[1]; treatment dose 500 μg/mL,47%
same,Bactericidal activity (%) Rhizoctonia cereali,Rhizoctonia cereali,98.0%
same,Bactericidal activity (%) Macrophoma kawatsukai,Macrophoma kawatsukai,97.2%
same,Bactericidal activity (%) Colletotrichum orbiculare,[2],77.8%
same,Bactericidal activity (%) Bipolaria maydis,Bipolaria maydis,84.0%
same,Bactericidal activity (%) potato late blight,potato late blight,76.0%
same,Bactericidal activity (%) Phytophthora capsici,Phytophthora capsici,73.7%
same,Bactericidal activity (%) Rhizoctonia solani,Rhizoctonia solani,88.2%
same,Bactericidal activity (%) Fusarium graminearumt,Fusarium graminearumt,41.4%
same,bactericidal activity against fungi (in words),14 kinds of fungi,very good bactericidal activity against various kinds of fungi
same,Cotton bollworm Mortality (%),cotton bollworms,30%
same,Bactericidal activity (%) Cercospora arachidicola,Cercospora arachidicola,82.4%
same,Bactericidal activity (%) Sclerotinia scleotiorum,Sclerotinia scleotiorum,94.1%
same,Relative inhibition rate (%) In vivo protection,[4]; treatment dose 100 μg/mL,21.7%
same,Relative inhibition rate (%) In vivo protection,[4]; treatment dose 500 μg/mL,53.8%
same,Bactericidal activity (%) Cucumber fusarium wilt,cucumber fusarium wilt,65.4%
same,Relative inhibition rate (%) In vivo inactivation,[5]; treatment dose 100 μg/mL,13.3%
same,Relative inhibition rate (%) In vivo inactivation,[5]; treatment dose 500 μg/mL,50.3%
same,Relative inhibition rate (%) In vitro activity,[6]; treatment dose 100 μg/mL,17.6%
same,Relative inhibition rate (%) In vitro activity,[6]; treatment dose 500 μg/mL,52.4%
same,Bactericidal activity (%) Fusarium fujikuroi,Fusarium fujikuroi,57.1%
same,Mosquito larvae Mortality (%),"mosquito larvae; concentration 10 mg/kg, 24 h",20%
same,Bactericidal activity (%) Botrytis cinerea,Botrytis cinerea,86.4%
same,Armyworm Mortality (%),armyworms,10%
"C[C@@H]1N[C@H](C(=O)NN=Cc2ccc(Cl)cc2)Cc2c1[nH]c1ccccc21 [Ic-5, (1S, 3S)—N′-(4-chlorobenzylidene)-1-methyl-2,3,4,9-tetrahydropyridino [3,4-b] indol-3-formylhydrazine]",Bactericidal activity (%) Alternaria solani,Alternaria solani,55.0%
same,Corn borer Mortality (%),corn borers [9],20%
same,Relative inhibition rate (%) In vivo therapy,[1]; treatment dose 100 μg/mL,29.2%
same,Relative inhibition rate (%) In vivo therapy,[1]; treatment dose 500 μg/mL,71.5%
same,Bactericidal activity (%) Rhizoctonia cereali,Rhizoctonia cereali,94.1%
same,Bactericidal activity (%) Macrophoma kawatsukai,Macrophoma kawatsukai,97.2%
same,Bactericidal activity (%) Colletotrichum orbiculare,[2],77.8%
same,Bactericidal activity (%) Bipolaria maydis,Bipolaria maydis,68.0%
same,Bactericidal activity (%) potato late blight,potato late blight,80.0%
same,Bactericidal activity (%) Phytophthora capsici,Phytophthora capsici,81.6%
same,Bactericidal activity (%) Rhizoctonia solani,Rhizoctonia solani,81.6%
same,Bactericidal activity (%) Fusarium graminearumt,Fusarium graminearumt,75.9%
same,bactericidal activity against fungi (in words),14 kinds of fungi,very good bactericidal activity against various kinds of fungi
same,Cotton bollworm Mortality (%),cotton bollworms,25%
same,Bactericidal activity (%) Cercospora arachidicola,Cercospora arachidicola,76.5%
same,Bactericidal activity (%) Sclerotinia scleotiorum,Sclerotinia scleotiorum,88.2%
same,Relative inhibition rate (%) In vivo protection,[4]; treatment dose 100 μg/mL,34.1%
same,Relative inhibition rate (%) In vivo protection,[4]; treatment dose 500 μg/mL,64.2%
same,Bactericidal activity (%) Cucumber fusarium wilt,cucumber fusarium wilt,61.5%
same,Relative inhibition rate (%) In vivo inactivation,[5]; treatment dose 100 μg/mL,35.9%
same,Relative inhibition rate (%) In vivo inactivation,[5]; treatment dose 500 μg/mL,70.4%
same,Relative inhibition rate (%) In vitro activity,[6]; treatment dose 100 μg/mL,30.8%
same,Relative inhibition rate (%) In vitro activity,[6]; treatment dose 500 μg/mL,67.3%
same,Bactericidal activity (%) Fusarium fujikuroi,Fusarium fujikuroi,64.3%
same,Mosquito larvae Mortality (%),"mosquito larvae; concentration 10 mg/kg, 24 h",50%
same,Bactericidal activity (%) Botrytis cinerea,Botrytis cinerea,59.1%
same,Armyworm Mortality (%),armyworms,25%
"C[C@@H]1N[C@H](C(=O)NN=Cc2ccc[nH]2)Cc2c1[nH]c1ccccc21 [Ic-19, (1S, 3S)—N′-(pyrrole-2-methylene)-1-methyl-2,3,4,9-tetrahydropyridino [3,4-b] indol-3-formylhydrazine]",Bactericidal activity (%) Alternaria solani,Alternaria solani,15.0%
same,Corn borer Mortality (%),corn borers [9],60%
same,Relative inhibition rate (%) In vivo therapy,[1]; treatment dose 100 μg/mL,27.8%
same,Relative inhibition rate (%) In vivo therapy,[1]; treatment dose 500 μg/mL,63.4%
same,Bactericidal activity (%) Rhizoctonia cereali,Rhizoctonia cereali,74.5%
same,Bactericidal activity (%) Macrophoma kawatsukai,Macrophoma kawatsukai,97.2%
same,Bactericidal activity (%) Colletotrichum orbiculare,[2],29.6%
same,Bactericidal activity (%) Bipolaria maydis,Bipolaria maydis,28.0%
same,Bactericidal activity (%) potato late blight,potato late blight,24.0%
same,Bactericidal activity (%) Phytophthora capsici,Phytophthora capsici,42.1%
same,Bactericidal activity (%) Rhizoctonia solani,Rhizoctonia solani,32.9%
same,Bactericidal activity (%) Fusarium graminearumt,Fusarium graminearumt,41.4%
same,Cotton bollworm Mortality (%),cotton bollworms,50%
same,Bactericidal activity (%) Cercospora arachidicola,Cercospora arachidicola,23.5%
same,Bactericidal activity (%) Sclerotinia scleotiorum,Sclerotinia scleotiorum,58.8%
same,Relative inhibition rate (%) In vivo protection,[4]; treatment dose 100 μg/mL,30%
same,Relative inhibition rate (%) In vivo protection,[4]; treatment dose 500 μg/mL,54.7%
same,Bactericidal activity (%) Cucumber fusarium wilt,cucumber fusarium wilt,23.1%
same,Relative inhibition rate (%) In vivo inactivation,[5]; treatment dose 100 μg/mL,20.2%
same,Relative inhibition rate (%) In vivo inactivation,[5]; treatment dose 500 μg/mL,61.3%
same,Relative inhibition rate (%) In vitro activity,[6]; treatment dose 100 μg/mL,8.8%
same,Relative inhibition rate (%) In vitro activity,[6]; treatment dose 500 μg/mL,49.5%
same,Bactericidal activity (%) Fusarium fujikuroi,Fusarium fujikuroi,14.3%
same,activity against culex pipiens larvae (in words),mosquito larvae,still show high activity
same,Mosquito larvae Mortality (%),"mosquito larvae; concentration 5 mg/kg, 24 h",80%
same,Mosquito larvae Mortality (%),"mosquito larvae; concentration 10 mg/kg, 24 h",100%
same,Bactericidal activity (%) Botrytis cinerea,Botrytis cinerea,22.7%
same,"activity against armyworms, cotton bollworms and corn borers (in words)",[7],broad-spectrum activity
same,anti-TMV activity compared with ningnanmycin,[8],equivalent to the activity of commercial variety ningnanmycin
same,Armyworm Mortality (%),armyworms,70%
